What all share (assay type): cell-based
The test system of one assay is MDA-MB-231s. As to the kind of experiment: CD24 mRNA expression in 2D (differentiation screening). Particulars: 200 μM, 48h, FCthreshold=2.0. The protocol: FIG. 3H depicts relative CD24 mRNA expression. CD24 expression was an early indicator of response to ISX9 in 2D across several TNBC cell lines. Treatment screening of several different TNBC cell lines with ISX9 in 2D for 48h yielded four responders, as determined by CD24 mRNA expression (FIG. 3H).
These analogs were screened for their potential to differentiate MDA-MB-231s, yielding at least one new hit, CR-1 (˜98% similarity), which induced a ˜6-fold upregulation of CD24 at a concentration of 200 μM at 48h in 2D (FIG. 6).

The test system of assay [1] is MDAs. The experiment in a line: invasion distances of MDAs in HD Col1 treated with GSIs. Particulars: HD Col1, vs vehicle (0.1% DMSO). From the text:
Therefore, this example assessed what effect GSIs would have on MDAs in HD Col1. […] FIG. 3C depicts invasion distances of MDAs in HD Col1 treated with vehicle (0.1% DMSO) or GSIs DAPT and MK0752.

A further assay relates to CSCs. The experiment in a line: phenotypic effects in CSCs (MOA controls). The conditions noted are these: compared to ISX9 (data not shown). An excerpt: (§1) Therefore, to begin to characterize the MOA of ISX9 in CSCs, it was first determined whether ISX9 treatment of CSCs triggered Ca^2+ signaling. MDAs were transduced to express the genetically encoded Ca^2+ sensor GCamp6f and treated with vehicle, ionomycin (positive control), or ISX9 (data not shown). […] FIG. 5 depicts Ca^2+ response of MDAs to ISX9 treatment. Scale bar=250 μm.

Another assay relates to MDA-MB-231 cells. The experiment in a line: western blot of acetylation of histones H3 and H4. Particulars: 2D- and 3D-treated cells, 24 hours. From the text:
Also identified was the fact that a similar increase in acetylation was found in patient-derived organoid models. […] Acetylation and deactylation of histones H3 and H4 are typically orchestrated by Histone Acetyltransferases (HATs), including the several HAT subfamilies, as well as HDACs (see, e.g., Marmorstein, R. et al. Cold Spring Harb. Perspect. Biol. 6, a018762 (2014)). Not wishing to be bound by any particular theory, Isx9 may bind directly to HATs and/or HDACs in order to activate histone acetylation and drive induction of MET and/or CSC differentiation.
On the technique in general: Immunoblotting shows a protein as a band on a membrane.

Assay [2] deals with MDAs. The experiment in a line: Ca2+ signaling with genetically encoded Ca2+ sensor GCamp6f. Particulars: GCamp6f-expressing MDAs (data not shown).
Text: as §1

Molecules are shown by their SMILES.

As to `CC(C)NC(=O)c1cc(-c2cccs2)on1` [CR-1], the “upregulation of CD24” value in the assay with MDA-MB-231s is approximately 6 fold.

On to `C[C@H](NC(=O)Cc1cc(F)cc(F)c1)C(=O)N[C@H](C(=O)OC(C)(C)C)c1ccccc1` [DAPT], for which, in the assay on MDAs [1], the “inhibition of the CINP / tumor cell invasion” value is given as “did not inhibit the CINP, but rather slightly promoted tumor cell invasion”.

In the case of `O=C(O)CC[C@H]1CC[C@@](c2cc(F)ccc2F)(S(=O)(=O)c2ccc(Cl)cc2)CC1` [MK0752], the “inhibition of the CINP / tumor cell invasion” value in the assay with MDAs [1] is given as “did not inhibit the CINP, but rather slightly promoted tumor cell invasion”.

For the compound `CN[C@H](CC(=O)O)C(=O)O` [NMDA, N-Methyl-D-aspartate], the phenotypic effects result in the assay on CSCs is reported as “no phenotypic effects”.

Turning to `CC(/C=C/C(=O)NO)=C\[C@@H](C)C(=O)c1ccc(N(C)C)cc1` [TSA, reference compound], the “acetylation of histones H3 and H4” value in the assay with MDA-MB-231 cells is given as “similarly induced H3/H4 acetylation”.

With `C[C@H](CCC(=O)O)C[C@H](C)C[C@H](C)C(=O)/C=C(\O)[C@H](C)C[C@H](C)C/C=C/[C@@H](C)[C@@H](O)[C@@H](C)[C@@H](O)C[C@@H]1CC[C@@](C)([C@H]2CC[C@@](C)([C@@H](C)O)O2)O1` [ionomycin, reference compound], the “Ca2+ signal” value with MDAs [2] is reported as “observed”.
